Data from publication PMC8426418 (Therapeutic drug monitoring, 2021).
“And” between values parts separate entries of the source, which are not always exact repeats. Equal values may be shown once. Read-outs that look alike come from different tables or passages of the source.

Experiments:
[1] = assay type: in vivo, human; details: at delivery, three subjects; for fetal to maternal ratio (umbilical cord venous plasma to maternal plasma concentration): steady-state; for maternal plasma steady-state concentration / umbilical cord venous plasma steady-state concentration: mean±SE
[2] = cited from earlier work
[3] = Steady-state plasma concentrations of BUP and metabolites in pregnancy; details: for Css (dose-normalized steady-state plasma concentration) / metabolite/BUP steady-state concentration ratio: geometric mean [range]; for steady-state concentration relative to BUP: pregnant women and postpartum
[4] = for change in formation clearance (CLf) during pregnancy compared to postpartum: T2 or T3 vs matched postpartum; for CLR (renal clearance) / CL renal: geometric mean [range]; for CL renal: female, human, urine and plasma, oral, CLR (renal clearance)
[5] = postpartum (PP) matched to T2, n=5
[6] = postpartum (PP) matched to T3, n=5

| SMILES | maternal plasma steady-state concentration [1] [µM/g] | umbilical cord venous plasma steady-state concentration [1] [µM/g] | plasma concentration exceeding BUP concentration [2] | Css (dose-normalized steady-state plasma concentration) [3, 5] | metabolite/BUP steady-state concentration ratio [3, 5] | Css (dose-normalized steady-state plasma concentration) [3, 6] | metabolite/BUP steady-state concentration ratio [3, 6] | Css (dose-normalized steady-state plasma concentration) ([3]; second trimester (T2), n=5) | metabolite/BUP steady-state concentration ratio ([3]; second trimester (T2), n=5) | Css (dose-normalized steady-state plasma concentration) ([3]; third trimester (T3), n=5) | metabolite/BUP steady-state concentration ratio ([3]; third trimester (T3), n=5) | steady-state concentration relative to BUP ([3]; this study) | change in formation clearance (CLf) during pregnancy compared to postpartum [4] | CLR (renal clearance) [4, 5] | CLR (renal clearance) [4, 6] | CLR (renal clearance) ([4]; second trimester (T2), n=5) | CLR (renal clearance) ([4]; third trimester (T3), n=5) | further results |
| --- | --- | --- | --- | --- | --- | --- | --- | --- | --- | --- | --- | --- | --- | --- | --- | --- | --- | --- |
| C[C@H](NC(C)(C)C)[C@@H](O)c1cccc(Cl)c1 [Threo, threohydrobupropion] | 4.9 ± 5.3 | 3.7 ± 4.3 | 3–30 fold | 4.1 [1.2–10.8] μM/g | 7.8 [3.5–17.6] | 4.7 [1.2–10.8] μM/g | 11.5 [9.7–17.6] | 3.4 [1.8–6.7] μM/g | 10.3 [4.8–23.1] | 4.9 [3.1–10.7] μM/g | 11.2 [5.6–16.6] | 8–10 fold and 10 fold | no changes | 2.4 [0.55–17.6] L/h | 2.9 [0.59–17.6] L/h | 3.9 [1.7–8.6] L/h | 2.0 [1.1–2.8] L/h | fetal to maternal ratio (umbilical cord venous plasma to maternal plasma concentration) [1]: 0.7±0.1; steady-state concentration relative to racemic BUP ([2]; non-pregnant subjects): 5 fold |
| C[C@@H]1NC(C)(C)CO[C@@]1(O)c1cccc(Cl)c1 [S,S-OH-BUP] | 0.8 ± 0.6 | 0.4 ± 0.2 |  | 0.78 [0.10–2.2] μM/g | 1.5 [0.7–5.9] | 0.64 [0.10–2.2] μM/g | 1.6 [0.8–5.9] | 0.73 [0.20–1.4] μM/g | 2.2 [1.0–6.0] | 0.83 [0.36–1.7] μM/g | 1.9 [0.9–8.7] |  |  | 0.35 [0.09–3.5] L/h | 0.47 [0.09–3.5] L/h | 0.93 [0.31–3.4] L/h | 0.40 [0.24–0.72] L/h |  |
| CC(NC(C)(C)C)C(=O)c1ccc(O)c(Cl)c1 (stereo not drawn) [4’OH-BUP, 4’-hydroxy-bupropion] |  |  |  |  |  |  |  |  |  |  |  |  | no changes |  |  |  |  |  |
| C[C@H]1NC(C)(C)CO[C@]1(O)c1cccc(Cl)c1 [OH-BUP, hydroxybupropion] |  |  | 3–30 fold | 16.3 [4.9–39.6] μM/g |  | 13.3 [4.9–39.6] μM/g |  | 15.1 [10.6–18.7] μM/g |  | 16.5 [6.3–30.9] μM/g |  | 28–33 fold and 30 fold | no changes | 0.10 [0.02–0.54] L/h | 0.10 [0.03–0.46] L/h | 0.20 [0.11–0.36] L/h | 0.08 [0.04–0.12] L/h | steady-state concentration relative to racemic BUP ([2]; non-pregnant subjects): 28 fold |
| C[C@@H](NC(C)(C)C)C(=O)c1cccc(Cl)c1 [R-BUP, R-bupropion, reference compound] |  |  |  |  |  |  |  |  |  |  |  |  |  |  |  |  |  | circulating concentration of R-BUP relative to S-BUP [2]: 3- to 6 fold |
| CC(NC(C)(C)C)C(O)c1cccc(Cl)c1 (stereo not drawn) [Erythro, erythrohydrobupropion] | 0.5 ± 0.5 | 0.3 ± 0.3 | 3–30 fold | 0.67 [0.25–1.7] μM/g | 1.3 [0.5–3.2] | 0.80 [0.25–1.7] μM/g | 1.9 [1.2–3.2] | 0.49 [0.33–0.78] μM/g | 1.5 [0.4–4.2] | 0.63 [0.52–0.79] μM/g | 1.4 [0.6–2.7] | similar | no changes | 1.6 [0.36–9.7] L/h | 1.9 [0.36–9.7] L/h | 2.1 [0.91–4.4] L/h | 1.2 [0.74–1.7] L/h |  |
| C[C@H]1NC(C)(C)CO[C@]1(O)c1cccc(Cl)c1 [R,R-OH-BUP] | 19.1 ± 12.0 | 6.4 ± 3.1 |  | 15.9 [5.5–35.7] μM/g | 32.5 [15.8–77.2] | 14.0 [5.5–35.7] μM/g | 35.6 [15.2–77.2] | 15.8 [10.0–22.2] μM/g | 43.8 [16.4–178.7] | 13.7 [5.9–21.2] μM/g | 33.7 [13.5–99.1] |  |  | 0.08 [0.02–0.45] L/h | 0.09 [0.03–0.35] L/h | 0.15 [0.07–0.32] L/h | 0.07 [0.05–0.09] L/h | fetal to maternal ratio (umbilical cord venous plasma to maternal plasma concentration) [1]: 0.4±0.1; R,R-OH-BUP exposure relative to S,S-OH-BUP [2]: up to 65 fold; R,R-OH-BUP concentration relative to S,S-OH-BUP ([2]; non-pregnant subjects): 40–65 fold; R,R-OH-BUP steady-state concentration relative to S,S-OH-BUP ([3]; this study): 14–20 fold |
| CC(NC(C)(C)C)C(=O)c1cccc(Cl)c1 (stereo not drawn) [BUP, Bupropion, reference compound] | 0.5 ± 0.2 | 0.2 ± 0.1 |  | 0.53 [0.11–1.3] μM/g |  | 0.41 [0.11–1.1] μM/g |  | 0.33 [0.08–1.2] μM/g |  | 0.44 [0.19–1.2] μM/g |  |  |  |  |  |  |  | CL renal ([4]; second trimester (T2), n=5): 40 mL/min; CL renal ([4]; third trimester (T3), n=5): 30 mL/min |
